Measured values as given in patent publication US9226503B2, “Composition and method for attraction of emerald ash borer Agrilus planipennis fairmaire (coleoptera: buprestidae)” (Her Majesty the Queen in Right of Canada, as represented by …, priority 2011, dated 2016).

Assays:
A. planipennis antennae = assay: EAG dose-response study; set-up: species or system Agrilus planipennis; conditions: for EAG responsiveness of female antennae compared with male antennae: particularly at higher doses, P<0.0001; for EAG response of female antennae, (3Z)- vs (3E)-lactone: stimulus doses 0.01-100 μg, P=0.91
Source text: EAG analyses were made by methods and equipment generally described by Cossé & and Bartelt (2000). EAG connections were made by inserting a glass-pipette silver-grounding electrode into the back of an excised beetle head. A second glass-pipette silver-recording probe was placed in contact with the distal end of one antenna. Both pipettes were filled with Beadle-Ephrussi (Ephrussi and Beadle 1936) saline.
For the EAG-dose-response study, (3Z)- and (3E)-lactones were purified (99.9% purity by GC/MS) by high performance liquid chromatography (HPLC) using a Waters 515 pump, a Waters R401 refractive index detector, and a 25 cm by 0.46 cm i.d. silica column (Adsorbosphere Silica 5 μm, Alltech, Deerfield, Ill.), treated with silver nitrate as described by Heath and Sonnett (1980). Solvent was 8% ether in hexane. Ten micro liters of serially diluted solutions (methylene chloride) of synthetic (3Z)-lactone and (3E)-lactone were applied to filter paper strips (0.5 cm×5 cm, Whatman no. 1). The filter paper strips were placed in 14-cm-long Pasteur pipettes, hereafter referred to as stimulus cartridges, after 5 min at room temperature. Stimulus doses tested were 0.01, 0.1, 1, 10, and 100 μg. Male and female antennae were exposed to single 0.2s puffs of odor-bearing air at 5 ml/s by placing the tip of an stimulus cartridge into a hole of a glass tube (0.7 cm ID×20 cm), 10 cm from the outlet and 11 cm away from the antennal preparation. Airflow through the glass tube was humidified and set at 10 ml/s. Puff duration and airflow speeds were maintained by a stimulus flow controller (SFC-2, Syntech, Hilversum, The Netherlands). Stimuli cartridges were selected in random order, beginning with the lowest dosages and working upward to the highest dosages. Each puffed dosage was preceded and followed by a puff from a solvent blank cartridge (filter paper plus solvent). To compensate for possible deterioration of the antennal preparation, a standard control compound, geranyl acetone (1 μg dose) preceded dosages of stimuli compound. EAG amplitudes were normalized according to the responses to geranyl acetone by dividing the amplitude of the EAG generated by the test compounds by that of geranyl acetone. Dose-response series were replicated, using different antennal preparation for each replication, and the EAG responses were expressed as a percentage of the EAG responses to geranyl acetone. Each antennal preparation was tested with freshly prepared sets of stimuli cartridges. Male and female EAG responses were submitted to analysis of variance (ANOVA) using Statistica for Windows software (StatSoft Inc. Tulsa, Okla.)).

A. planipennis = assay: Two-choice Y-tube olfactometer assay; type: in vivo, Agrilus planipennis; conditions: males; lactone 10 μg, (3Z)-hexenol 5 μg; chi-square test
Method: A Y-tube olfactometer (Analytical Research Systems Inc, Gainsville, Fla.) was used to test for attraction of A. planipennis to lactone isomers and host volatiles. […] Each arm was connected to a cylinder that contained the stimulus. Charcoal filtered air was passed into each arm at a flow rate of 1.2 L/min. Treatments included the pheromone alone: (3Z)-lactone (10 μg); (3E)-lactone (10 μg); and 60:40 (3E):(3Z)-lactone (10 μg). Next, we tested bark sesquiterpenes and a green leaf volatile alone: Phoebe oil (25 μg and 2.5 μg) and (3Z)-hexenol (5 μg). We then tested the pheromone combined with bark sesquiterpenes: (3Z)-lactone (10 μg)+Phoebe oil (at both 25 μg and 2.5 μg); (3E)-lactone (10 μg)+Phoebe oil (at both 25 μg and 2.5 μg). Finally, we tested the pheromone combined with the green leaf volatile: (3Z)-lactone (10 μg)+(3Z)-hexenol (5 μg); and (3E)-lactone (10 μg)+(3Z)-hexenol (5 μg). Each stimulus (l μl for single compound treatments and a total of 2 μl for two-compound treatments) was diluted in hexane, placed on a strip of filter paper and given one minute for the solvent to evaporate before being placed in the olfactometer. A second filter paper, treated with the equivalent volume of solvent was placed in the other arm of the olfactometer to serve as the control. The apparatus was rinsed with acetone after each treatment, and the arm attached to the test stimulus was randomized between replicates.
For each treatment, we tested increasing numbers of adults until we obtained a minimum of 12 beetles responding to the stimuli (either positively or negatively). To obtain this minimum, we tested 15-54 beetles per treatment. For each trial, a single A. planipennis (mature virgin male or female, >10 days old) was given ten minutes to choose between the two stimuli; adults were used only once in the bioassay. […] A chi-square test was conducted for each independent trial.

SMILES | EAG responsiveness of female antennae compared with male antennae (A. planipennis antennae) | EAG response of female antennae, (3Z)- vs (3E)-lactone (A. planipennis antennae) | attraction of males in Y-tube olfactometer vs hexane control (A. planipennis)
O=C1C/C=C\CCCCCCCCO1 [(3Z)-lactone, (3Z)-dodecen-12-olide] | more responsive | did not respond differently | not
O=C1C/C=C/CCCCCCCCO1 [(3E)-lactone, (3E)-dodecen-12-olide] | more responsive | did not respond differently | significantly attracted
